Measured values: PMC12567082, “Silver(I) Complexes Bearing S-Alkyl Thiosalicylic Acid Derivatives: DNA/BSA Binding and Antitumor Activity In Vitro and In Vivo” (Pharmaceutics, 2025)

How the values were obtained:
[1] = test system: human fibroblast cell lines (MRC-5); assay: MTT assay MRC-5; type: cell-based
Experimental: (§1) Mouse breast cancer (4T1), human breast cancer (MDA-MB-468), mouse colon cancer (CT26), human colon cancer (HCT-116), mouse lung cancer (LLC1), human lung cancer (A549), mouse mesenchymal stem cells (mMSC), and human fibroblast cell lines (MRC-5) were used in this study and were consistently cultured in complete Dulbecco’s Modified Eagle Medium (DMEM) (Sigma-Aldrich, St. Louis, MO, USA) in incubator (5% CO2) under standard conditions. Complete DMEM was Dulbecco’s Modified Eagle Medium supplemented with 10% fetal bovine serum (FBS), 1 mmol/L penicillin–streptomycin, 1 mmol/L mixed nonessential amino acids, and 2 mmol/L L-glutamine (Sigma-Aldrich, St. Louis, MO, USA). All cancer cell lines and MRC-5 cell line were obtained from American Type Culture Collection (ATCC, Manassas, VA, USA), but mMSC was manufactured by Gibco (Middlesex County, MA, USA).
(§2) In 96-well microplates, we seeded cancer and non-cancer cells, more exactly 5 × 10^3 cells per well in 100 μL of complete DMEM (Sigma-Aldrich, St. Louis, MO, USA). […] Tested concentration range for all metal-based substances was 3.9–500 μM. After incubation with MTT solution (5 mg/mL; pH 7.2) for 4 h, optical density was determined using Zenyth 3100 microplate multimode detector (Salzburg, Austria). All experiments were performed three times, each in triplicate, and the IC50 values as well as selectivity indexes (IC50 for mMSC or MRC-5/IC50 for mouse or human cancer cells) were calculated.

CT-DNA [2] = assay: UV-Vis absorption titration with CT-DNA; type: binding, calf; details: ΔG = −RT lnKb
Experimental: All DNA-binding studies were conducted in 0.01 M phosphate-buffered saline (PBS, pH 7.40) at 25 °C. […] To eliminate absorbance from CT-DNA, identical amounts of DNA were added to both the test and reference solutions prior to spectral recording.
Intrinsic binding constants (Kb) were calculated using the equation to determine the DNA-binding affinities of the complexes (1):[DNA]/(εa − εf) = [DNA]/(εb − εf) + 1 [Kb(εb − εf)](1)
[DNA] represents the concentration of DNA; apparent extinction coefficient, εa, was calculated as the ratio of the observed absorbance to the concentration of the complex (Aobs/[complex]); and εb and εf correspond to the extinction coefficients of the complex in the fully bound and free forms, respectively. Kb was determined from the ratio of the slope to the intercept obtained from the corresponding linear plots.

CT-DNA [3] = assay: EB–CT-DNA fluorescence quenching; type: binding, calf; details: EB–CT-DNA 8.52 × 10^−5 M, PBS pH 7.4
Experimental: All samples were prepared in phosphate-buffered saline (PBS, pH 7.4). Stern–Volmer Equation (2) was used to interpret the fluorescence quenching data.

human lung cancer (A549) = assay: MTT assay A549; type: cell-based
Experimental: as §1, §2

[4] = test system: mouse mesenchymal stem cells (mMSC); assay: MTT assay mMSC; type: cell-based; details: 48 h
Experimental: as §1, §2

4T1 cells [5] = assay: Scratch assay; type: cell-based, mouse; details: 0.5 µM, after 12 and 24 h, vs untreated
Experimental: In order to determine migratory capacity of C3-treated 4T1 cells, scratch assay was performed as previously described. Once 4T1 cells formed a confluent monolayer, an injury was made, and first representative images were taken immediately. Further 4T1 cells were exposed to C3 (0.5 µM) or DMEM only (untreated cells), and observation under inverted optical microscope (Olympus, Tokyo, Japan) was made after 4 h, 12 h, and 24 h. Scratch width was quantified by ImageJ (version 1.54.0 NIH, Madison, WI, USA).

4T1 cells [6] = assay: Flow cytometry of apoptosis and proliferation markers; type: cell-based, mouse; details: 0.5 µM, 24 h, vs untreated
Experimental: Flow cytometry was performed on 4T1 cells treated with 0.5 µM of C3 for 24 h or untreated cells. After treatment, cells were incubated with antibodies specific for Bax (Abcam Cambridge, Cambridge, UK), Bcl-2 (Abcam Cambridge, UK), BclXL (Thermo Fisher Scientific, Waltham, MA, USA), MCL-1 (Thermo Fisher Scientific, Waltham, MA, USA) caspase 3 (Abcam Cambridge, UK), Ki-67 (eBioscience, San Diego, CA, USA), cyclin D3 (Abcam Cambridge, UK), p21 (Abcam Cambridge, UK), p16 (Abcam Cambridge, UK), and p27 (Abcam Cambridge, UK) and secondary antibodies as previously described. FACSCalibur Flow Cytometer (BD Biosciences, San Jose, CA, USA) was used for flow cytometry, and the data were analyzed using FlowJo (version 10.7.2; Tree Star Inc. Ashland, OR, USA).

4T1 cells [7] = assay: Mitochondrial membrane potential and ROS levels; type: cell-based, mouse; details: 0.5 µM
Experimental: After 24 h of C3 treatment, 4T1 cells were stained with appropriate dyes, followed by flow cytometry analysis using FACS Calibur Flow Cytometer (BD Biosciences, San Jose, CA, USA). Mitochondrial membrane potential stained by Rhodamine-123 (Sigma-Aldrich, St. Louis, MO, USA), TMRE (Abcam, Cambridge, UK), and cellular ROS levels were stained by DC-FHDA (Sigma-Aldrich, St. Louis, MO, USA).

Compound: CCCSc1ccccc1C(=O)[O][Ag].CCCSc1ccccc1C(=O)[O][Ag] [C3, [Ag2(S-propyl-thiosal)2]]
- IC50 ([1]; MRC-5, 24 h): 38.1 ± 1.13 µM
- IC50 ([1]; MRC-5, 48 h): 43.3 ± 1.1 µM
- ΔG (Gibbs free energy) (CT-DNA [2]): -7.29 kcal/mol
- Ksv EB (Stern–Volmer constant) (CT-DNA [3]): (1.4 ± 0.1) × 10^4 M^−1
- IC50 (human lung cancer (A549); A549, 24 h): 55.8 ± 1.83 µM
- Selectivity Index (IC50 mMSC or MRC-5/ IC50 Cancer Cell) (human lung cancer (A549); A549, 24 h): 0.68
- IC50 (human lung cancer (A549); A549, 48 h): 66.3 ± 1.18 µM
- Selectivity Index (IC50 mMSC or MRC-5/ IC50 Cancer Cell) (human lung cancer (A549); A549, 48 h): 0.65
- IC50 [4]: 4.22 ± 0.33 µM
- migration ability of 4T1 cells (4T1 cells [5]): significantly reduced
- Bax/Bcl-2 ratio (4T1 cells [6]): higher
- TMRE fluorescence (mitochondrial membrane potential) (4T1 cells [7]): significant decrease
- level of intracellular ROS (4T1 cells [7]; 24 h incubation): increased
